Data: the supplement of paper PMC10307832

How the values were obtained:
Test in all cases: relative viability (nuclei count vs DMSO), 5 days (fraction); higher = more cells survive
Tipifarnib + Linsitinib = compound: Cn1cncc1[C@@](N)(c1ccc(Cl)cc1)c1ccc2c(c1)c(-c1cccc(Cl)c1)cc(=O)n2C [Tipifarnib] + C[C@]1(O)C[C@@H](c2nc(-c3ccc4ccc(-c5ccccc5)nc4c3)c3c(N)nccn32)C1 [Linsitinib] (partner 1 µM)
Method in brief: (§1)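 Relative viability is defined as nuclei in treated wells over nuclei in vehicle wells. Duplicate plates were run and medians reported. Lung cancer cell lines in 1536-well plates were dosed by pin tool one day after seeding, with one drug or with a fixed anchor-drug dose plus five library-drug doses (not always all listed) in √10 steps, and nuclei were counted after 5 days.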

Tipifarnib + Pemetrexed = compound: Cn1cncc1[C@@](N)(c1ccc(Cl)cc1)c1ccc2c(c1)c(-c1cccc(Cl)c1)cc(=O)n2C [Tipifarnib] + Nc1nc2[nH]cc(CCc3ccc(C(=O)N[C@@H](CCC(=O)O)C(=O)O)cc3)c2c(=O)[nH]1 [Pemetrexed] (partner 0.2 µM)
Method in brief: as §1

Tipifarnib + Vorinostat = compound: Cn1cncc1[C@@](N)(c1ccc(Cl)cc1)c1ccc2c(c1)c(-c1cccc(Cl)c1)cc(=O)n2C [Tipifarnib] + O=C(CCCCCCC(=O)Nc1ccccc1)NO [Vorinostat] (partner 1 µM)
Method in brief: as §1

Tipifarnib + Olaparib = compound: Cn1cncc1[C@@](N)(c1ccc(Cl)cc1)c1ccc2c(c1)c(-c1cccc(Cl)c1)cc(=O)n2C [Tipifarnib] + O=C(c1cc(Cc2n[nH]c(=O)c3ccccc23)ccc1F)N1CCN(C(=O)C2CC2)CC1 [Olaparib] (partner 8 µM)
Method in brief: as §1

Cell Line | relative viability (Tipifarnib + Linsitinib; first compound 0.01 µM) | relative viability (Tipifarnib + Linsitinib; first compound 0.03162 µM) | relative viability (Tipifarnib + Linsitinib; first compound 0.1 µM) | relative viability (Tipifarnib + Linsitinib; first compound 0.3162 µM) | relative viability (Tipifarnib + Linsitinib; first compound 1 µM) | relative viability (Tipifarnib + Pemetrexed; first compound 0.01 µM) | relative viability (Tipifarnib + Pemetrexed; first compound 0.03162 µM) | relative viability (Tipifarnib + Pemetrexed; first compound 0.1 µM) | relative viability (Tipifarnib + Pemetrexed; first compound 0.3162 µM) | relative viability (Tipifarnib + Pemetrexed; first compound 1 µM) | relative viability (Tipifarnib + Vorinostat; first compound 0.01 µM) | relative viability (Tipifarnib + Vorinostat; first compound 0.03162 µM) | relative viability (Tipifarnib + Vorinostat; first compound 0.1 µM) | relative viability (Tipifarnib + Vorinostat; first compound 0.3162 µM) | relative viability (Tipifarnib + Vorinostat; first compound 1 µM) | relative viability (Tipifarnib + Olaparib; first compound 0.01 µM) | relative viability (Tipifarnib + Olaparib; first compound 0.03162 µM) | relative viability (Tipifarnib + Olaparib; first compound 0.1 µM) | relative viability (Tipifarnib + Olaparib; first compound 0.3162 µM) | relative viability (Tipifarnib + Olaparib; first compound 1 µM)
NCI-H650 | 0.825 | 0.706 | 0.662 | 0.526 | 0.348 | 1.02 | 0.917 | 0.846 | 0.626 | 0.36 | 0.366 | 0.325 | 0.346 | 0.249 | 0.189 | 0.543 | 0.394 | 0.376 | 0.334 | 0.303
NCI-H661 | 0.754 | 0.616 | 0.502 | 0.511 | 0.438 | 0.881 | 0.849 | 0.786 | 0.809 | 0.755 | 0.822 | 0.657 | 0.684 | 0.558 | 0.569 | 0.769 | 0.738 | 0.661 | 0.605 | 0.617
NCI-H838 | 0.955 | 0.826 | 0.684 | 0.628 | 0.6 | 0.259 | 0.264 | 0.293 | 0.269 | 0.269 | 0.665 | 0.646 | 0.606 | 0.568 | 0.588 | 0.741 | 0.675 | 0.683 | 0.626 | 0.617
NCI-H1355 | 0.861 | 0.896 | 0.649 | 0.541 | 0.69 | 1.04 | 0.966 | 0.81 | 0.776 | 0.745 | 0.625 | 0.544 | 0.409 | 0.466 | 0.301 | 0.801 | 0.706 | 0.55 | 0.559 | 0.507
NCI-H1395 | 1.43 | 1.14 | 0.888 | 0.869 | 0.783 | 0.826 | 0.76 | 0.746 | 0.651 | 0.508 | 0.673 | 0.53 | 0.603 | 0.523 | 0.393 | 0.444 | 0.5 | 0.454 | 0.421 | 0.473
NCI-H1437 | 1.15 | 0.993 | 1.04 | 0.816 | 0.698 | 0.32 | 0.344 | 0.322 | 0.285 | 0.297 | 0.837 | 0.796 | 0.747 | 0.646 | 0.601 | 0.656 | 0.638 | 0.643 | 0.585 | 0.608
NCI-H1651 | 1.18 | 1.06 | 0.964 | 0.892 | 0.961 | 0.592 | 0.636 | 0.676 | 0.635 | 0.522 | 0.545 | 0.54 | 0.537 | 0.507 | 0.335 | 0.213 | 0.194 | 0.236 | 0.22 | 0.222
NCI-H1666 | 0.719 | 0.704 | 0.623 | 0.549 | 0.573 | 0.908 | 0.889 | 0.766 | 0.844 | 0.842 | 1.05 | 0.874 | 1.02 | 0.883 | 0.878 | 0.737 | 0.672 | 0.779 | 0.731 | 0.721
NCI-H1734 | 0.875 | 0.85 | 0.709 | 0.694 | 0.48 | 0.38 | 0.442 | 0.428 | 0.419 | 0.394 | 0.791 | 0.553 | 0.534 | 0.368 | 0.364 | 0.626 | 0.615 | 0.54 | 0.494 | 0.482
NCI-H1755 | 0.995 | 0.957 | 0.928 | 0.913 | 0.897 | 0.41 | 0.524 | 0.446 | 0.474 | 0.425 | 0.75 | 0.764 | 0.781 | 0.739 | 0.596 | 0.869 | 0.86 | 0.875 | 0.891 | 0.898
NCI-H1793 | 0.983 | 0.577 | 0.737 | 0.751 | 0.576 | 0.89 | 0.748 | 0.703 | 0.522 | 0.389 | 0.635 | 0.643 | 0.737 | 0.404 | 0.292 | 0.875 | 0.718 | 0.809 | 0.695 | 0.608
NCI-H1915 | 0.902 | 0.695 | 0.631 | 0.542 | 0.583 | 0.549 | 0.449 | 0.449 | 0.353 | 0.298 | 0.544 | 0.43 | 0.373 | 0.305 | 0.336 | 0.237 | 0.248 | 0.25 | 0.231 | 0.242
NCI-H1944 | 1.3 | 1 | 1.09 | 0.644 | 0.737 | 0.531 | 0.581 | 0.48 | 0.438 | 0.409 | 0.509 | 0.382 | 0.309 | 0.289 | 0.285 | 0.41 | 0.364 | 0.356 | 0.376 | 0.382
NCI-H1975 | 1.07 | 1.16 | 0.876 | 0.614 | 0.714 | 0.258 | 0.285 | 0.3 | 0.241 | 0.251 | 0.639 | 0.682 | 0.588 | 0.485 | 0.491 | 0.863 | 0.764 | 0.782 | 0.559 | 0.505
NCI-H1993 | 0.772 | 0.746 | 0.73 | 0.732 | 0.789 | 0.664 | 0.55 | 0.647 | 0.427 | 0.605 | 0.819 | 0.446 | 0.489 | 0.468 | 0.497 | 1.04 | 0.94 | 0.937 | 0.701 | 0.604
